One block for each compound: values may come before it.
Assay: solvent given as SMILES

fluorescence lifetime (in C1CCCCC1): 2 ns
Structure (SMILES): CN(C)c1ccc2nc(-c3ccc(/C=N/Nc4ccccc4)cc3)sc2c1

fluorescence lifetime (in ClCCl): 7.3 ns
Structure (SMILES): CC1=C2c3ccccc3C(c3[nH]c(C)cc3C)=[N+]2[B-](F)(F)n2c(C)cc(C)c21

fluorescence lifetime (in ClC(Cl)Cl): 6.53 ns
Structure (SMILES): CC(C)(C)NC(=O)c1c([Si](C)(C)C)cc2ccc3cccc4ccc1c2c34

fluorescence lifetime (in ClCCl): 5.7 ns
Structure (SMILES): Cc1cccc(-c2c3ccccc3cc3ccccc23)n1

fluorescence lifetime (in CC#N): 0.64 ns
Structure (SMILES): Cc1cc2nc3[nH]c(=O)[nH]c(=O)c3nc2cc1C

fluorescence lifetime (in CC#N): 8 ns | fluorescence lifetime (in ClCCl): 2.1 ns
Structure (SMILES): Cc1cc(-c2ccc(C(C)(C)C)cc2)cc(C)[o+]1

fluorescence lifetime (in O): 4.2 ns
Structure (SMILES): CC[n+]1nc2cc3c4c(c2c2cc(C)ccc21)CCCN4CCC3

fluorescence lifetime (in CC#N): 1.16 ns | fluorescence lifetime (in CO): 1.15 ns | fluorescence lifetime (in O): 1.17 ns
Structure (SMILES): CSc1ccc2c(c1)N(CCCN(C)C)c1ccccc1S2

fluorescence lifetime (in C1CCOC1): 5.77 ns | fluorescence lifetime (in CCCCCC): 6.26 ns
Structure (SMILES): COc1cccc(OC)c1C1=C2C(C)=CC(C)=[N+]2[B-](F)(F)n2c(C)cc(C)c21

fluorescence lifetime (in C1CCOC1): 1.86 ns
Structure (SMILES): CCn1c2ccccc2c2cc(-c3cc(-c4ccc5c(c4)c4ccccc4n5CC)ncn3)ccc21

fluorescence lifetime (in ClCCl): 4.68 ns
Structure (SMILES): N#CC(C#N)=Cc1ccc2c(c1)c1ccccc1n2-c1cc2ccccc2c2ccccc12

fluorescence lifetime (in CCCCCC): 4.36 ns | fluorescence lifetime (in c1ccccc1): 1.17 ns
Structure (SMILES): O=C1OC(=O)c2ccc(N(c3ccccc3)c3ccc4ccc5cccc6ccc3c4c56)c3cccc1c23

fluorescence lifetime (in O): 17.1 ns
Structure (SMILES): CC(=O)Nc1ccc2c(c1)c(=O)c1ccccc1n2CCCCCC(=O)O

fluorescence lifetime (in CC#N): 19.4 ns | fluorescence lifetime (in CO): 17.8 ns | fluorescence lifetime (in ClCCl): 20.6 ns | fluorescence lifetime (in OCC(O)CO): 18.3 ns
Structure (SMILES): CCCn1c2cccc3oc4cccc5c4[c+](c32)c2c1cccc2n5CCC

fluorescence lifetime (in ClCCl): 0.3 ns
Structure (SMILES): CCOC(=O)/N=c1/oc2ccc(OC)cc2cc1C#N

The remaining lines, values behind:

Structure (SMILES): CCCCCCCCCCCCOc1cc2c3c(ccc4c5c(N6CCOCC6)cc6c7c(ccc(c1c34)c75)C(=O)N(C1CCCCC1)C6=O)C(=O)N(C1CCCCC1)C2=O
fluorescence lifetime (in ClC(Cl)Cl): 3.4 ns

Structure (SMILES): Nc1ccc(N2C(=O)c3ccc4c5ccc6c7c(ccc(c8ccc(c3c48)C2=O)c75)C(=O)N(c2ccc(N)cc2)C6=O)cc1
fluorescence lifetime (in CN(C)C=O): 3.8 ns

Structure (SMILES): c1ccc([B-]2(c3ccccc3)Oc3ccc4ccccc4c3-c3c4ccccc4cn[n+]32)cc1
fluorescence lifetime (in Cc1ccccc1): 9.32 ns

Structure (SMILES): O=C1c2ccc3c4c(NC5CCCCC5)cc5c6c(ccc(c7c(NC8CCCCC8)cc(c2c37)C(=O)N1C1CCCCC1)c64)C(=O)N(C1CCCCC1)C5=O
fluorescence lifetime (in ClC(Cl)Cl): 1.4 ns

Structure (SMILES): O=S(=O)(c1ccc(-c2ccc3c(c2)c2ccccc2n3-c2ccccc2)cc1)c1ccc(-c2ccc3c(c2)c2ccccc2n3-c2ccccc2)cc1
fluorescence lifetime (in Cc1ccccc1): 1.51 ns

Structure (SMILES): CCCCCCCCCCCCOc1cc2cc(N(C)C)ccc2cc1C=C(C#N)C#N
fluorescence lifetime (in CS(C)=O): 2.2 ns

Structure (SMILES): Cc1ccc(-c2ccc(/C=C/c3ccc([N+](=O)[O-])cc3)cn2)nc1
fluorescence lifetime (in CC#N): 0.31 ns

Structure (SMILES): C/C(=N\Nc1ccc(C#N)cc1)c1cccc(/C(C)=N/Nc2ccc(C#N)cc2)c1
fluorescence lifetime (in CO): 1.27 ns

Structure (SMILES): C(#Cc1ccc(-n2c3ccccc3c3ccccc32)cc1)c1ccccc1
fluorescence lifetime (in CC#N): 4.36 ns | fluorescence lifetime (in CCCCC): 2.6 ns | fluorescence lifetime (in CO): 3.7 ns | fluorescence lifetime (in Cc1ccccc1): 1.45 ns | fluorescence lifetime (in ClC(Cl)Cl): 1.59 ns | fluorescence lifetime (in ClCCl): 2.53 ns

Structure (SMILES): CCCCCCN(CCCCCC)c1ccc(C#Cc2ccc(C(F)(F)F)cc2)cc1
fluorescence lifetime (in ClCCl): 2.1 ns

Structure (SMILES): N#Cc1ccc(/C=C/c2ccc3ccc4cccc5ccc2c3c45)cc1
fluorescence lifetime (in C1CCOC1): 1.82 ns | fluorescence lifetime (in CC1CCCCC1): 2.05 ns | fluorescence lifetime (in CC#N): 1.68 ns | fluorescence lifetime (in CO): 1.6 ns | fluorescence lifetime (in Cc1ccccc1): 1.76 ns | fluorescence lifetime (in ClC(Cl)Cl): 1.53 ns

Structure (SMILES): Nc1cccc[nH+]1
fluorescence lifetime (in O): 11.2 ns

Structure (SMILES): Clc1cnc2nn3ccccc3c2n1
fluorescence lifetime (in C1CCOC1): 6.2 ns

Structure (SMILES): C/C=C/c1ccc(OC)cc1
fluorescence lifetime (in CC#N): 8.7 ns | fluorescence lifetime (in CCCCCC): 7.9 ns

Structure (SMILES): CCCCC(CC)CN1C(=O)c2cc(Oc3ccc(OC)cc3)c3c4c(Oc5ccc(C(C)(C)C)cc5)cc5c6c(cc(Oc7ccc(C(C)(C)C)cc7)c(c7c(Oc8ccc(OC)cc8)cc(c2c37)C1=O)c64)C(=O)N(c1c(C(C)C)cccc1C(C)C)C5=O (centres undefined)
fluorescence lifetime (in Cc1ccccc1): 5.32 ns

Structure (SMILES): CN(C)c1ccc2nc(-c3ccc(C(=O)OC[C@H](NC(=O)OC(C)(C)C)C(=O)OCc4ccccc4)cc3)sc2c1
fluorescence lifetime (in C1CCCCC1): 2.4 ns

Structure (SMILES): N#Cc1ccc2nc3[nH]c(=O)[nH]c(=O)c3nc2c1
fluorescence lifetime (in ClCCCl): 0.18 ns

Structure (SMILES): CN(C)c1ccc(C#Cc2ccc(-c3nc(C#N)c(C#N)n3C)cc2)cc1
fluorescence lifetime (in C1CCCCC1): 1.2 ns | fluorescence lifetime (in ClC(Cl)Cl): 1.7 ns

Structure (SMILES): Nc1ccc2[nH]ncc2c1
fluorescence lifetime (in C1CCCCC1): 4.9 ns | fluorescence lifetime (in CC#N): 4.7 ns | fluorescence lifetime (in CO): 6.4 ns | fluorescence lifetime (in O): 12.5 ns

Structure (SMILES): N#Cc1c[nH]c2ccccc12
fluorescence lifetime (in C1CCOC1): 3.1 ns | fluorescence lifetime (in C1COCCO1): 3 ns | fluorescence lifetime (in CC#N): 1.8 ns | fluorescence lifetime (in CS(C)=O): 0.2 ns

Structure (SMILES): c1ccc(-c2nnc(-c3cc(-c4nnc(-c5ccccc5)o4)c(-n4c5ccccc5c5ccccc54)cc3-n3c4ccccc4c4ccccc43)o2)cc1
fluorescence lifetime (in Cc1ccccc1): 4.9 ns | fluorescence lifetime (in O=P(c1ccccc1)(c1ccccc1)c1ccccc1Oc1ccccc1P(=O)(c1ccccc1)c1ccccc1): 8.6 ns

Structure (SMILES): c1ccc(C[n+]2cc3ccc4c[n+](Cc5ccccc5)cc5ccc(c2)c3c45)cc1
fluorescence lifetime (in CC#N): 4.3 ns

Structure (SMILES): Nc1cccnc1
fluorescence lifetime (in C1CCCCC1): 26.5 ns | fluorescence lifetime (in CC#N): 4.6 ns | fluorescence lifetime (in CCO): 6.5 ns | fluorescence lifetime (in CCOCC): 7.7 ns | fluorescence lifetime (in O): 21.1 ns

Source: the Deep4Chem optical property database
